Experimental data: PMC5691768, “Comparison of the Micellar Incorporation and the Intestinal Cell Uptake of Cholecalciferol, 25-Hydroxycholecalciferol and 1-α-Hydroxycholecalciferol” (Nutrients, 2017)

Experiments:
ASBT = assay: Uptake by Caco-2 cells with ASBT inhibition by simvastatin; format: in vitro ADME, human; details: 100 µM simvastatin (ASBT inhibitor), n = 3
Procedure: Caco-2 clone TC-7 cells were cultured as previously described. For each experiment, cells were seeded and grown on Millicell® hanging cell culture inserts (Millipore S.A.S., Molsheim, France) for 21 days to obtain confluent and highly differentiated cell monolayers. Twelve hours prior to each experiment, the medium in both the apical and basolateral chambers was replaced with serum-free complete medium. The apical uptake of vitamin D forms incorporated in mixed micelles was determined after a 1 h-incubation period in the presence or absence of inhibitors, as previously described. The % of vitamin D taken up was estimated as the quantity of vitamin D present in the harvested cells divided by the sum of the quantity of vitamin D remaining in the apical chamber and that present in the harvested cells. The efflux of vitamin D forms incorporated in mixed micelles was determined as previously described, with minor changes. Briefly, cells first received the vitamin D-rich micelles at the apical side for 4 h. They were then washed once with PBS and equilibrated in serum-free complete medium for 15 min. […] The % of vitamin D effluxed back to the apical side was estimated as the quantity of vitamin D present in the apical chamber divided by the quantity of vitamin D present in the harvested cells at t0.

[1] = Incorporation of vitamin D forms in synthetic mixed micelles; format: physicochemical; details: for incorporation efficiency into synthetic mixed micelles: vitamin D form 0–20 µM, linear incorporation curves, n = 3
Procedure: Mixed micelles were formed as previously described. Briefly, monoolein (0.3 mM), oleic acid (0.5 mM), phosphatidylcholine (0.04 mM), lysophosphatidylcholine (0.16 mM), and cholesterol (0.1 mM) dissolved in trichloromethane/methanol (2:1, v/v) and vitamin D forms (concentration range: 0–20 µM) dissolved in ethanol were transferred to a glass tube, and the solvent mixture was carefully evaporated under nitrogen. The dried residue was dispersed in DMEM containing 5 mM sodium taurocholate and was incubated at 37 °C for 30 min. The solution was mixed by sonication in a bath sonicator (Branson 3510 MT, 40 kHz; Branson Ultrasonics, Danbury, CT, USA) for 30 min and then incubated at 37 °C for 1 h. It was then filtrated through cellulose ester membranes (0.22 µm) (Millipore S.A.S., Molsheim, France), and the resulting solution of vitamin D-rich mixed micelles was stored at −20 °C until cell culture experiment or vitamin extraction and HPLC analysis. Concentrations of the different forms in the micellar solutions were checked before each experiment.
(§1) Vitamin D forms were extracted from 500 µL aqueous samples using the method previously described. The internal standard was retinyl acetate for D3 and ergocalciferol for both 25(OH)D3 and 1α(OH)D3. After lipid extraction with hexane, dried residues were dissolved in 200 µL of mobile phase (acetonitrile/methanol/water, 60/38/2, v/v/v). A volume of 160 µL was used for HPLC analysis.
(§2) The HPLC system and method were set up according to previous studies. All molecules were identified by retention time compared with pure standards.

Caco-2 clone TC-7 cells = assay: Apical uptake of micellar vitamin D forms by Caco-2 cell monolayers; format: in vitro ADME, human; details: 1 h incubation, mixed micelles; for uptake rate by Caco-2 cells at high concentration: >5 µM apical, n = 6; for uptake rate by Caco-2 cells at low concentration: <1 µM apical, n = 3
Procedure: (§3) Caco-2 clone TC-7 cells were cultured as previously described. For each experiment, cells were seeded and grown on Millicell® hanging cell culture inserts (Millipore S.A.S., Molsheim, France) for 21 days to obtain confluent and highly differentiated cell monolayers. Twelve hours prior to each experiment, the medium in both the apical and basolateral chambers was replaced with serum-free complete medium. The apical uptake of vitamin D forms incorporated in mixed micelles was determined after a 1 h-incubation period in the presence or absence of inhibitors, as previously described. The % of vitamin D taken up was estimated as the quantity of vitamin D present in the harvested cells divided by the sum of the quantity of vitamin D remaining in the apical chamber and that present in the harvested cells. The efflux of vitamin D forms incorporated in mixed micelles was determined as previously described, with minor changes. Briefly, cells first received the vitamin D-rich micelles at the apical side for 4 h. They were then washed once with PBS and equilibrated in serum-free complete medium for 15 min. Cells were either harvested (control) or they received apical medium containing vitamin D-free mixed micelles for 1 h. The % of vitamin D effluxed back to the apical side was estimated as the quantity of vitamin D present in the apical chamber divided by the quantity of vitamin D present in the harvested cells at t0.
as §1, §2

NPC1L1 = target: T1, NPC1L1 (Homo sapiens, UniProt Q9UHC9); assay: Uptake by Caco-2 cells with NPC1L1 inhibition by ezetimibe glucuronide; format: in vitro ADME; details: 10 µM ezetimibe glucuronide (NPC1L1 inhibitor), n = 3
T1 construct: endogenous in cells; host or cells: Caco-2 clone TC-7
T1 sequence (Q9UHC9 22-1359): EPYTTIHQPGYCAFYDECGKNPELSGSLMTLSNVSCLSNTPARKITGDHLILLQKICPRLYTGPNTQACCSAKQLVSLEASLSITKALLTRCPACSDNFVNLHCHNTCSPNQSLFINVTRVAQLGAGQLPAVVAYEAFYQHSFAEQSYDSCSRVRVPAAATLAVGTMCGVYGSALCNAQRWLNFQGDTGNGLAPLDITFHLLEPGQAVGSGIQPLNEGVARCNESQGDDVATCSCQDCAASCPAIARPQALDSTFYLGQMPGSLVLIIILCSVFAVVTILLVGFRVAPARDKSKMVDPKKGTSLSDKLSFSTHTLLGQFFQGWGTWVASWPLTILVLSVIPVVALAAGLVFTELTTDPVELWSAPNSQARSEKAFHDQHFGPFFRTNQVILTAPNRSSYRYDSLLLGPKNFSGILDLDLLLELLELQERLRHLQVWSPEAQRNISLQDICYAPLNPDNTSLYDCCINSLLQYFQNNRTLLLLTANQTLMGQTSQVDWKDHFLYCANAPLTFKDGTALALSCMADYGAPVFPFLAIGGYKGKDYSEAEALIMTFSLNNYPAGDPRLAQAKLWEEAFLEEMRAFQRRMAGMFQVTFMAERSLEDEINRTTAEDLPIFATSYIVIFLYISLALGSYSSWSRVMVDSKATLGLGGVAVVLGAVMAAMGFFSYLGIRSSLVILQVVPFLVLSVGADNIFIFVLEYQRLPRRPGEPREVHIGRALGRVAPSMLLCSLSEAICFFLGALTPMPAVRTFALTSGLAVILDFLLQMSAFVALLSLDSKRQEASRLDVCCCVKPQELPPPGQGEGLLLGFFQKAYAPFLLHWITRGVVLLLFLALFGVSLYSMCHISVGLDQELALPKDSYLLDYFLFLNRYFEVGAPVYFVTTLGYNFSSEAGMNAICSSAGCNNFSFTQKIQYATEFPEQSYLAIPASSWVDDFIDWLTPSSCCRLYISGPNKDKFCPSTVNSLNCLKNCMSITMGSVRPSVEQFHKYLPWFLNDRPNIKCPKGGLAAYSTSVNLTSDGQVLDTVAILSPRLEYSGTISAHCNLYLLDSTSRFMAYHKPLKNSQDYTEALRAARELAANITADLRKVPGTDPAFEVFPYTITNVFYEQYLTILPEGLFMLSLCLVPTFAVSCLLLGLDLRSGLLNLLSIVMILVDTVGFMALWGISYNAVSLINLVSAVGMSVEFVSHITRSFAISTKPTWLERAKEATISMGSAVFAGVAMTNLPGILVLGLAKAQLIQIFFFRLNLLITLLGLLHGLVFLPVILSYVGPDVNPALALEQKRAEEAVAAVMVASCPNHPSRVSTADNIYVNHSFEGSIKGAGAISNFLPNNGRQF
Procedure: as §3

SR-BI = target: T2, SR-BI (Homo sapiens, UniProt Q8WTV0); assay: Uptake by Caco-2 cells with SR-BI inhibition by BLT1; format: in vitro ADME; details: 10 µM BLT1 (SR-BI inhibitor), n = 3
T2 construct: endogenous in cells; host or cells: Caco-2 clone TC-7
T2 sequence (Q8WTV0 1-509 isoform Q8WTV0-2): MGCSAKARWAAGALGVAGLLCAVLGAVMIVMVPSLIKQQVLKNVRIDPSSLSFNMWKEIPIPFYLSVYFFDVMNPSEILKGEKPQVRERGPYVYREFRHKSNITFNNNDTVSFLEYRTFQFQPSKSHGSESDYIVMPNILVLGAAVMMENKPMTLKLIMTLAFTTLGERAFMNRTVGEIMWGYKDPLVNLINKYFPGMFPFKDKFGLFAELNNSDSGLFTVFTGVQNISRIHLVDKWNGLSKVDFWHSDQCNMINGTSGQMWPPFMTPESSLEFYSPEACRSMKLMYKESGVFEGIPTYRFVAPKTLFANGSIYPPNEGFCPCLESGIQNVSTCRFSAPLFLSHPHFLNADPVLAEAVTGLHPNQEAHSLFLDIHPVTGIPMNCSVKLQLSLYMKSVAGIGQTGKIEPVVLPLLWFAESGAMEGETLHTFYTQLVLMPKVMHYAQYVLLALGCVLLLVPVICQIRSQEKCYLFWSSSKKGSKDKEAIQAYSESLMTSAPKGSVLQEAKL
Procedure: as §3

[2] = design: method as in PubChem Website; details: ref PubChem Website; cited from earlier work
human ASBT = target: T3, human ASBT (Homo sapiens, UniProt Q12908); assay: Uptake by Griptite cells overexpressing ASBT; format: in vitro ADME; details: Griptite cells transfected with human ASBT vs empty plasmid, 37 °C, 1 h
T3 construct: host or cells: Griptite cells (HEK-293-derived, own knowledge)
T3 sequence (Q12908 1-348): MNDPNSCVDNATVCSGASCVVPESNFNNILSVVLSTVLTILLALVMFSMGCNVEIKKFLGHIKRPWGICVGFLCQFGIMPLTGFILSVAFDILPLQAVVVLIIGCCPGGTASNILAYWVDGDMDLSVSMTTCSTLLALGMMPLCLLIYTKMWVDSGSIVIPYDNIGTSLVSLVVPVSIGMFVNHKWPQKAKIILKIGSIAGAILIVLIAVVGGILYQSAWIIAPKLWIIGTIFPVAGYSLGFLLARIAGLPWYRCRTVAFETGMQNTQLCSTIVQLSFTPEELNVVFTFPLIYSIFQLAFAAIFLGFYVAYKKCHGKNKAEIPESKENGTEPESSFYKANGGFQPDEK
Procedure: Griptite cells were cultured and transfected with 3 µg DNA (either ASBT in pCMV plasmid or empty pCMV control plasmid) similarly to HEK cells, as previously described. Transfection efficiency was verified by western blotting, as previously published. A pre-incubation of the cell monolayers with DMEM supplemented with either DMSO (control) or 100 µM simvastatin was performed during 30 min. Synthetic mixed micelles containing vitamin D forms were diluted in DMEM (1:5) to avoid cytotoxicity [23](data not shown). Apical uptake of vitamin D forms was determined after a 1 h-incubation with a solution of micellar vitamin D containing either DMSO or 100 µM simvastatin (final concentration of DMSO in both conditions: 0.01%). The % of vitamin D taken up was estimated as the quantity of vitamin D present in the harvested cells divided by the sum of the quantity of vitamin D remaining in the apical chamber and that present in the harvested cells.

C=C1CC[C@H](O)C/C1=C/C=C1\CCC[C@]2(C)[C@@H]([C@H](C)CCCC(C)C)CC[C@@H]12 [D3, cholecalciferol]
decrease of uptake in the presence of simvastatin (ASBT): about 24%
incorporation efficiency into synthetic mixed micelles [1]: 39%
uptake rate by Caco-2 cells at high concentration (Caco-2 clone TC-7 cells): 18%
uptake rate by Caco-2 cells at low concentration (Caco-2 clone TC-7 cells): 10%
decrease of uptake in the presence of ezetimibe glucuronide (NPC1L1): 30%
decrease of uptake in the presence of BLT1 (SR-BI): 31%
log P [2]: 7.9
effect of ASBT overexpression on uptake (human ASBT): changed neither

C=C1/C(=C\C=C2/CCC[C@]3(C)[C@@H]([C@H](C)CCCC(C)C)CC[C@@H]23)C[C@@H](O)C[C@@H]1O [1α(OH)D3, 1-α-hydroxycholecalciferol]
decrease of uptake in the presence of simvastatin (ASBT): ~15%
incorporation efficiency into synthetic mixed micelles [1]: 62%
fold improvement of solubilization into mixed micelles compared to 25-hydroxycholecalciferol ([1]; vs 25-hydroxycholecalciferol): 2.9 fold
fold improvement of solubilization into mixed micelles compared to cholecalciferol ([1]; vs cholecalciferol): 1.6 fold
uptake rate by Caco-2 cells at high concentration (Caco-2 clone TC-7 cells): 25%
uptake rate by Caco-2 cells at low concentration (Caco-2 clone TC-7 cells): 18%
decrease of uptake in the presence of ezetimibe glucuronide (NPC1L1): but not
decrease of uptake in the presence of BLT1 (SR-BI): not significantly modified
log P [2]: 6.8
effect of ASBT overexpression on uptake (human ASBT): changed neither

C=C1CC[C@H](O)C/C1=C/C=C1\CCC[C@]2(C)[C@@H]([C@H](C)CCCC(C)(C)O)CC[C@@H]12 [25(OH)D3, 25-hydroxycholecalciferol]
incorporation efficiency into synthetic mixed micelles [1]: 21%
uptake rate by Caco-2 cells at high concentration (Caco-2 clone TC-7 cells): 34%
uptake rate by Caco-2 cells at low concentration (Caco-2 clone TC-7 cells): 29%
decrease of uptake in the presence of ezetimibe glucuronide (NPC1L1): but not
decrease of uptake in the presence of BLT1 (SR-BI): not significantly modified
log P [2]: 6.2
